Results as given in the NIST ThermoML archive (doi:10.1021/acs.jced.7b00297).
Numbers after ± are expanded uncertainties.

Assay: mn = molality of the nth substance listed, in mol/kg
Conditions: 84.5 kPa, Liquid; for speed of sound: Single path-length method; for mass density: Vibrating tube method

CCCCn1cc[n+](C)c1.O=S(=O)([O-])C(F)(F)F [1-butyl-3-methylimidazolium trifluoromethanesulfonate] + O
speed of sound (288.15 K, m1 = 0.0164): 1468.7 ± 1 m/s | speed of sound (288.15 K, m1 = 0.0259): 1469.8 ± 1 m/s | speed of sound (288.15 K, m1 = 0.042): 1471.8 ± 1 m/s | speed of sound (288.15 K, m1 = 0.0699): 1475 ± 1 m/s | speed of sound (288.15 K, m1 = 0.1072): 1479.2 ± 1 m/s | speed of sound (288.15 K, m1 = 0.1455): 1483.8 ± 1 m/s | speed of sound (288.15 K, m1 = 0.3021): 1499.6 ± 1.1 m/s | speed of sound (288.15 K, m1 = 0.4645): 1513.4 ± 1.1 m/s | speed of sound (288.15 K, m1 = 0.6651): 1526.7 ± 1.1 m/s | speed of sound (288.15 K, m1 = 0.8671): 1535.6 ± 1.1 m/s | mass density (288.15 K, m1 = 0.0164): 1000.27 ± 4 kg/m3 | mass density (288.15 K, m1 = 0.0259): 1000.93 ± 4 kg/m3 | mass density (288.15 K, m1 = 0.042): 1002.06 ± 4 kg/m3 | mass density (288.15 K, m1 = 0.0699): 1003.99 ± 4 kg/m3 | mass density (288.15 K, m1 = 0.1072): 1006.54 ± 4 kg/m3 | mass density (288.15 K, m1 = 0.1455): 1009.12 ± 4 kg/m3 | mass density (288.15 K, m1 = 0.3021): 1019.31 ± 4.1 kg/m3 | mass density (288.15 K, m1 = 0.4645): 1029.21 ± 4.1 kg/m3 | mass density (288.15 K, m1 = 0.6651): 1040.6 ± 4.2 kg/m3 | mass density (288.15 K, m1 = 0.8671): 1051.21 ± 4.2 kg/m3 | speed of sound (298.15 K, m1 = 0.0164): 1498.5 ± 1 m/s | speed of sound (298.15 K, m1 = 0.0259): 1499.4 ± 1 m/s | speed of sound (298.15 K, m1 = 0.042): 1501 ± 1 m/s | speed of sound (298.15 K, m1 = 0.0699): 1503.5 ± 1 m/s | speed of sound (298.15 K, m1 = 0.1072): 1506.6 ± 1 m/s | speed of sound (298.15 K, m1 = 0.1455): 1510.2 ± 1 m/s | speed of sound (298.15 K, m1 = 0.3021): 1522.1 ± 1.1 m/s | speed of sound (298.15 K, m1 = 0.4645): 1532.3 ± 1.1 m/s | speed of sound (298.15 K, m1 = 0.6651): 1541.5 ± 1.1 m/s | speed of sound (298.15 K, m1 = 0.8671): 1546.9 ± 1.1 m/s | mass density (298.15 K, m1 = 0.0164): 998.176 ± 4 kg/m3 | mass density (298.15 K, m1 = 0.0259): 998.823 ± 4 kg/m3 | mass density (298.15 K, m1 = 0.042): 999.922 ± 4 kg/m3 | mass density (298.15 K, m1 = 0.0699): 1001.79 ± 4 kg/m3 | mass density (298.15 K, m1 = 0.1072): 1004.28 ± 4 kg/m3 | mass density (298.15 K, m1 = 0.1455): 1006.78 ± 4 kg/m3 | mass density (298.15 K, m1 = 0.3021): 1016.66 ± 4.1 kg/m3 | mass density (298.15 K, m1 = 0.4645): 1026.22 ± 4.1 kg/m3 | mass density (298.15 K, m1 = 0.6651): 1037.21 ± 4.2 kg/m3 | mass density (298.15 K, m1 = 0.8671): 1047.44 ± 4.2 kg/m3 | speed of sound (308.15 K, m1 = 0.0164): 1521.1 ± 1 m/s | speed of sound (308.15 K, m1 = 0.0259): 1521.8 ± 1 m/s | speed of sound (308.15 K, m1 = 0.042): 1523 ± 1 m/s | speed of sound (308.15 K, m1 = 0.0699): 1524.8 ± 1 m/s | speed of sound (308.15 K, m1 = 0.1072): 1527.2 ± 1 m/s | speed of sound (308.15 K, m1 = 0.1455): 1529.8 ± 1 m/s | speed of sound (308.15 K, m1 = 0.3021): 1538.4 ± 1.1 m/s | speed of sound (308.15 K, m1 = 0.4645): 1545.4 ± 1.1 m/s | speed of sound (308.15 K, m1 = 0.6651): 1551.1 ± 1.1 m/s | speed of sound (308.15 K, m1 = 0.8671): 1553.8 ± 1.1 m/s | mass density (308.15 K, m1 = 0.0164): 995.134 ± 4 kg/m3 | mass density (308.15 K, m1 = 0.0259): 995.765 ± 4 kg/m3 | mass density (308.15 K, m1 = 0.042): 996.836 ± 4 kg/m3 | mass density (308.15 K, m1 = 0.0699): 998.662 ± 4 kg/m3 | mass density (308.15 K, m1 = 0.1072): 1001.08 ± 4 kg/m3 | mass density (308.15 K, m1 = 0.1455): 1003.52 ± 4 kg/m3 | mass density (308.15 K, m1 = 0.3021): 1013.11 ± 4.1 kg/m3 | mass density (308.15 K, m1 = 0.4645): 1022.39 ± 4.1 kg/m3 | mass density (308.15 K, m1 = 0.6651): 1033.03 ± 4.1 kg/m3 | mass density (308.15 K, m1 = 0.8671): 1042.94 ± 4.2 kg/m3 | speed of sound (318.15 K, m1 = 0.0164): 1537.4 ± 1 m/s | speed of sound (318.15 K, m1 = 0.0259): 1537.9 ± 1 m/s | speed of sound (318.15 K, m1 = 0.042): 1538.8 ± 1 m/s | speed of sound (318.15 K, m1 = 0.0699): 1540 ± 1 m/s | speed of sound (318.15 K, m1 = 0.1072): 1541.7 ± 1 m/s | speed of sound (318.15 K, m1 = 0.1455): 1543.6 ± 1 m/s | speed of sound (318.15 K, m1 = 0.3021): 1549.2 ± 1.1 m/s | speed of sound (318.15 K, m1 = 0.4645): 1553.4 ± 1.1 m/s | speed of sound (318.15 K, m1 = 0.6651): 1556.2 ± 1.1 m/s | speed of sound (318.15 K, m1 = 0.8671): 1556.5 ± 1.1 m/s | mass density (318.15 K, m1 = 0.0164): 991.289 ± 4 kg/m3 | mass density (318.15 K, m1 = 0.0259): 991.906 ± 4 kg/m3 | mass density (318.15 K, m1 = 0.042): 992.952 ± 4 kg/m3 | mass density (318.15 K, m1 = 0.0699): 994.732 ± 4 kg/m3 | mass density (318.15 K, m1 = 0.1072): 997.093 ± 4 kg/m3 | mass density (318.15 K, m1 = 0.1455): 999.47 ± 4 kg/m3 | mass density (318.15 K, m1 = 0.3021): 1008.81 ± 4 kg/m3 | mass density (318.15 K, m1 = 0.4645): 1017.83 ± 4.1 kg/m3 | mass density (318.15 K, m1 = 0.6651): 1028.16 ± 4.1 kg/m3 | mass density (318.15 K, m1 = 0.8671): 1037.8 ± 4.2 kg/m3
